Measurements reported in patent US7678787B2, “Pyrrolobenzodiazepine pyridine carboxamides and derivatives as follicle-stimulating hormone receptor antagonists” (Wyeth, priority 2005, dated 2010).

Key:
[1] = biological target: T1, hFSH-R (Homo sapiens, UniProt P23945); test: cAMP accumulation (RIA) in CHO-3D2 cells (hFSH-R), hFSH-induced; format: cell-based; conditions: inhibition of cAMP accumulation induced by hFSH at EC20, CHO-3D2 cells
T1 construct: expressed in transfected cells; host or cells: CHO-3D2 cells (CHO-K1 parental line)
T1 sequence (P23945 18-695): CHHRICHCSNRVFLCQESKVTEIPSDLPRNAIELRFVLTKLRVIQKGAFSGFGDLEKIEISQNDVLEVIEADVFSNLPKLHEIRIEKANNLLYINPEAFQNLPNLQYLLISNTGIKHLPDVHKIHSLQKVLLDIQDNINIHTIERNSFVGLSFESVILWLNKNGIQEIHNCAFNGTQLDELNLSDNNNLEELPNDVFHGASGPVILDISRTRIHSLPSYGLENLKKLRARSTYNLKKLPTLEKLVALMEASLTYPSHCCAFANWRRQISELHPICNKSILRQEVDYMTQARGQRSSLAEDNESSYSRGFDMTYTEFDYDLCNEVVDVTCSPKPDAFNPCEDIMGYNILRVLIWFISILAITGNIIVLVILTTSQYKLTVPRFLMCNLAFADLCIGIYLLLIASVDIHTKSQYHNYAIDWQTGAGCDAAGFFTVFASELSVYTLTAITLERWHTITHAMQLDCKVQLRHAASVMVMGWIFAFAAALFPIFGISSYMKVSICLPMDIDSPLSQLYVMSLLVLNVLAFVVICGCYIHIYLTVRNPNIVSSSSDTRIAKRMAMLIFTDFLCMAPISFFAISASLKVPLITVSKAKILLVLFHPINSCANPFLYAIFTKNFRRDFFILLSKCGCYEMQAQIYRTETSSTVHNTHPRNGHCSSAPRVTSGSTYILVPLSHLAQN
Method: IN VITRO BIO-ASSAY OF AGONISTS AND ANTAGONISTS TO THE FSH RECEPTOR. SELECTIVITY AND DEPENDENCY OF AGONISTS AND ANTAGONISTS TO THE FSH RECEPTOR
Compound Vehicle: Stock compounds were solubilized in 100% DMSO (Sigma-Aldrich Chemical Co., St. Louis, Mo.) at a concentration of 30 mM. The compounds subsequently were diluted in sterile assay medium consisting of Opti-MEM® I (Invitrogen/Life Technologies, Carlsbad, Calif.) with 0.1% (w/v) BSA (Sigma-Aldrich) prior to use in the bio-assay. The final concentration of DMSO in the assay was 0.1%.
Plated cells are then incubated at 37° C. in a humidified 5% CO2/95% air atmosphere.
Assay: On the day of the assay, cells were washed three times with 100 μl/well of assay medium consisting of Opti-MEM® I (Invitrogen/Life Technologies) with 0.1% (w/v) BSA (Sigma-Aldrich). Medium was removed and 100 μl of assay medium was added to each well. Plates were incubated for an additional 30 minutes at 37° C. […] Reactions were terminated by the addition of 50 μl of 0.2N hydrochloric acid to each well and cAMP-accumulation was measured by radioimmunoassay (RIA) using a commercially available kit (Amersham Biosciences, Piscataway, N.J.).
All test compounds were evaluated in a dose-response paradigm ranging from 0.01 to 30 μM. Controls and test compounds were evaluated in quadruplicate in a 96-well format.
Along with the test compounds, FSH was run also as a postive control in the agonist mode using concentrations ranging from 0.1-1000 ng/ml.
Data were analyzed by one-way analysis of variance and significant differences between treatments and control determined by Least Significant Difference test.
Test compounds were compared to the effect of purified human FSH.

[2] = biological target: T2, human FSH receptor (Homo sapiens, UniProt P23945); test: FSH receptor-dependent CRE-luciferase reporter gene assay (CHO FSH-R 6CRE-Luc cells); format: cell-based; conditions: dose-response format in presence of EC50 of purified human FSH; * n=3, ** n=2 averages
T2 construct: host or cells: CHO-K1 (CHO FSH-R 6CRE-Luc, 1D7 cells)
T2 sequence (P23945 18-695): T1 sequence (P23945 18-695)
Source text: FOLLICLE-STIMULATING HORMONE RECEPTOR-DEPENDENT CRE-LUCIFERASE REPORTER GENE ASSAY FOR THE IDENTIFICATION OF FOLLICLE-STIMULATING HORMONE (FSH) ANTAGONISTS
A Chinese hamster ovarian cell line that stably produces the human FSH receptor and a luciferase reporter gene regulated by cAMP response elements was used to identify and determine the relative potencies of human FSH receptor antagonists. See for example, Kelton, C. A., et al. Mol. Cell. Endocrinol. 89:141-151 (1992), Tilly, J. L., et al. Endocrinology 131:799-806(1992), and George, S. E., et al. J. Biomol. Screening 2:235-240 (1997).
Compound Vehicle: Stock compounds were solubilized in an appropriate vehicle, e.g., phosphate buffered saline (PBS) or dimethyl sulfoxide (DMSO), at 30 mM. The compounds subsequently were diluted in DMSO to working dilutions of 1 and 20 or 30 mM for 2-dose testing format and 1 μM-10 mM for dose-response format. The DMSO dilutions were diluted 500-fold in sterile growth medium [D-MEM/F-12 (GIBCO/BRL; Grand Island, N.Y.) containing 15 mM HEPES, 2 mM l-glutamine, pyridoxine hydrochloride, phenol red and 5% FETALCLONE® II (HyClone Laboratories, Inc; Logan, Utah), 0.2% DMSO, 100 units penicillin G/ml, and 100 μg streptomycin sulfate/ml (GIBCO/BRL)]. The concentration of the vehicle in each of the compound dilutions was the same.
Positive Controls: Purified human FSH (>98%) was purchased from Cortex Biochem, Inc. (San Leandro, Calif.) and 3-[(2S*,5R*)-5-{[2-(1H-Indol-3-yl)-ethylcarbamoyl]-methyl}-4-oxo-2-(5-phenylethynyl-thiophen-2-yl)-thiazolidin-3-yl]-benzamide (an FSH-R thiazolidinone antagonist) was prepared by processes described by R. A. Scheuerman et al. in U.S. Pat. No. 6,426,357 (Affymax).
The CHO FSH-R 6CRE-Luc cells (1D7 cells) were obtained from Affymax (Palo Alto, Calif.). These Chinese hamster ovary cells (CHO-K1) were engineered genetically to stably express the recombinant human FSH receptor gene and a luciferase reporter gene under the regulation of 6 copies of a cAMP response element. The cells were plated one day prior to treatment into 96-well white opaque plates at a density of 50,000 cells/100 μl/well in growth medium. On the day of treatment, the growth medium was removed from the wells by aspiration and 50 μl of fresh growth medium was added to each well. The cells were incubated at 37° C. in a humidified incubator with 5% CO2/95% air.
The treated cells were incubated for 4 hours at 37° C. in a humidified incubator with 5% CO2/95% air. At the end of the incubation period, luciferase activity was measured by chemiluminescence using a commercially available kit (LucScreen, Tropix, Inc., Bedford, Mass.) according to the manufacturer's specifications, except that Buffer 1 and Buffer 2 were mixed together in equal proportion prior to the addition of 100 μl of the combined reagents to each well. Chemiluminescence was detected using a luminometer (EG & G Berthold Microlumat LB 96 P, Wallac, Gaithersburg, Md.) with chemiluminescence measured for 1 sec/well. Background luminescence was measured for each well prior to the addition of the LucScreen reagent.
In the 96-well 2-dose format, each compound was tested in duplicate at each dose. […] One plate was used to test a maximum of 22 compounds.
The EC50 of purified human FSH alone was tested in triplicate with each test compound. The doses chosen to test each compound were extrapolated from the initial 2-dose screening process. Along with the test compounds, purified human FSH also was tested in a dose response (0.03, 0.1, 0.3, 1, 3, 10, and 30 ng/ml) for a positive control and quality control. One plate was used for 3 test compounds and the FSH positive control.
Luciferase activity is expressed as relative light units/sec/well. Luciferase activity in antagonist was compared to the appropriate negative and positive controls. For 2-dose testing, results are reported as luciferase activity and are expressed as percent inhibition of the response obtained from the EC50 of FSH.

IC50 [1] [µM] | IC50 [2] [µM] | melting point | Compound
– | 14.5 | 221 to 224 °C | CNC(=O)c1ccccc1-c1ccc(C(=O)N2Cc3ccc(C(=O)NCc4cccnc4)n3Cc3ccccc32)cc1 [Example 69]
– | 2 | 161 to 165 °C (dec.) | O=C(NCc1cccnc1)c1ccc2n1Cc1ccccc1N(Cc1ccc(-c3ccccc3)cc1)C2 [Example 73]
– | 18.1 | 101 °C | O=C(NCc1cccnc1)c1ccc2n1Cc1ccccc1N(C(=O)c1cccc(F)c1)C2 [Example 78]
– | 18.4 | 192 °C | O=C(NCc1cccnc1)c1ccc2n1Cc1ccccc1N(C(=O)c1ccc(Cl)c(Cl)c1)C2 [Example 81]
– | 12.2 | 110 to 112 °C | COc1ccc(C(=O)N2Cc3ccc(C(=O)NCc4cccnc4)n3Cc3ccccc32)cc1 [Example 89]
– | > 30 | 171 to 173 °C | O=C(NCc1cccnc1)c1ccc2n1Cc1ccccc1N(C(=O)c1ccc(F)cc1)C2 [Example 93]
– | > 30 | 171 °C | CC(C)(C)OC(=O)NCc1ccc(C(=O)N2Cc3ccc(C(=O)NCc4cccnc4)n3Cc3ccccc32)cc1 [Example 103]
– | 7.65 | 119 to 124 °C | O=C(NCc1cccnc1)c1ccc2n1Cc1ccccc1N(C(=O)c1ccc(-c3ccncc3)cc1)C2 [Example 110]
– | 5.48 | 178 to 179 °C | O=C(NCc1cccnc1)c1ccc2n1Cc1ccccc1N(C(=O)c1ccc(-c3nccs3)cc1)C2 [Example 111]
– | 15.8 | 169 to 171 °C | O=C(NCc1cccnc1)c1ccc2n1Cc1ccccc1N(C(=O)COc1ccc(Cl)cc1)C2 [Example 138]
– | 9.86 | 168 °C | Cc1cc(Cl)ccc1OCC(=O)N1Cc2ccc(C(=O)NCc3cccnc3)n2Cc2ccccc21 [Example 139]
– | 18.5 | 83 °C | O=C(NCc1cccnc1)c1ccc2n1Cc1ccccc1N(C(=O)Cc1ccc(Cl)cc1)C2 [Example 142]

The remaining lines, values behind:

Compound | IC50 [1] [µM] | IC50 [2] [µM] | melting point
CC(O)c1ccccc1-c1ccc(C(=O)N2Cc3ccc(C(=O)NCc4cccnc4)n3Cc3ccccc32)cc1 (single isomer, unassigned; (+)) [Example 54] | 0.15 | 0.317 | –
CC(O)c1ccccc1-c1ccc(C(=O)N2Cc3ccc(C(=O)NCc4cccnc4)n3Cc3ccccc32)cc1 (single isomer, unassigned; (-)) [Example 53] | 0.12 | 0.159 | –
Cc1cc(C(=O)N2Cc3ccc(C(=O)NCc4cccnc4)n3Cc3ccccc32)ccc1-c1ccccc1C(F)(F)F [Example 5] | 1.5 | 13.8 | –
COc1ccccc1-c1ccc(C(=O)N2Cc3ccc(C(=O)NCc4cccnc4Oc4ccccc4)n3Cc3ccccc32)cc1 [Example 7, 10-[(2′-METHOXY-1,1′-BIPHENYL-4-YL)CARBONYL]-N-[(2-PHENOXYPYRIDIN-3-YL)METHYL]-10,11-DIHYDRO-5H-PYRROLO[2,1-C][1,4]BENZODIAZEPINE-3-CARBOXAMIDE] | 0.7 | 5.4 | –
O=C(NCc1cccnc1)c1ccc2n1Cc1ccccc1N(C(=O)c1ccc(-c3ccccc3)cc1)C2 [Example 13] | 0.7 | 2.8 | –
CSc1ccccc1-c1ccc(C(=O)N2Cc3ccc(C(=O)NCc4cccnc4)n3Cc3ccccc32)cc1 [Example 14, 10-{[2′-(METHYLTHIO)-1,1′-BIPHENYL-4-YL]CARBONYL}-N-(PYRIDIN-3-YLMETHYL)-10,11-DIHYDRO-5H-PYRROLO[2,1-C][1,4]BENZODIAZEPINE-3-CARBOXAMIDE 0.67 HYDRATE] | 0.77 | 1.61 | –
Cc1cc(C(=O)N2Cc3ccc(C(=O)NCc4cccnc4)n3Cc3ccccc32)ccc1-c1ccccc1F [Example 20] | 1.3 | 3.7 | –
Cc1cc(C(=O)N2Cc3ccc(C(=O)NCc4cccnc4)n3Cc3ccccc32)ccc1-c1ccccc1Cl [Example 21] | 1 | 2.9 | –
Cc1cc(C(=O)N2Cc3ccc(C(=O)NCc4cccnc4)n3Cc3ccccc32)ccc1-c1ccc(Cl)cc1 [Example 24] | 1.6 | 10.7 | –
CC(C)(C)OC(=O)c1ccccc1-c1ccc(C(=O)N2Cc3ccc(C(=O)NCc4cccnc4)n3Cc3ccccc32)cc1 [Example 64] | – | > 30 | 163 to 165 °C
O=C(O)c1ccccc1-c1ccc(C(=O)N2Cc3ccc(C(=O)NCc4cccnc4)n3Cc3ccccc32)cc1 [Example 65, 4′-{[3-{[(PYRIDIN-3-YLMETHYL)AMINO]CARBONYL}-5H-PYRROLO[2,1-C][1,4]BENZODIAZEPIN-10(11H)-YL]CARBONYL}-1,1′-BIPHENYL-2-CARBOXYLIC ACID] | – | > 30 | 189 to 191 °C
